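Cultured in 96-well plates, cells were exposed to test compound for 48 hours across five concentrations. TGI is the concentration that stops growth completely.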
Assays:
Assay in all cases: growth of human tumour cells (NCI), 48 h
[1] = test system: XF 498 CNS
[2] = test system: KM20L2 colon
[3] = test system: ACHN renal
[4] = test system: OVCAR-5 ovarian
[5] = test system: 786-0 renal
[6] = test system: SN12C renal
[7] = test system: A549 NSCLC
[8] = test system: UACC-257 melanoma
[9] = test system: OVCAR-3 ovarian
[10] = test system: HOP-92 NSCLC
[11] = test system: SF-268 CNS
[12] = test system: M14 melanoma
[13] = test system: KM12 colon
[14] = test system: HOP-62 NSCLC
[15] = test system: TK-10 renal
[16] = test system: OVCAR-4 ovarian
[17] = test system: SNB-75 CNS
[18] = test system: SF-295 CNS
[19] = test system: COLO 205 colon
[20] = test system: U251 CNS
[21] = test system: HL-60(TB) leukemia
[22] = test system: OVCAR-8 ovarian
[23] = test system: SF-539 CNS
[24] = test system: NCI-H460 lung
[25] = test system: NCI-H522 lung
[26] = test system: NCI-H23 lung
[27] = test system: UACC-62 melanoma
[28] = test system: SNB-19 CNS
[29] = test system: IGROV1 ovarian
[30] = test system: LOX IMVI melanoma
[31] = test system: HT29 colon
[32] = test system: UO-31 renal
[33] = test system: RPMI-8226 leukemia
[34] = test system: CAKI-1 renal
[35] = test system: SR leukemia
[36] = test system: HCC-2998 colon
[37] = test system: MALME-3M melanoma
[38] = test system: SK-OV-3 ovarian
[39] = test system: NCI-H226 lung
[40] = test system: K-562 leukemia
[41] = test system: SW-620 colon
[42] = test system: HCT-116 colon
[43] = test system: MOLT-4 leukemia
[44] = test system: SNB-78 CNS
[45] = test system: DMS 273 small cell lung
[46] = test system: LXFL 529 NSCLC
[47] = test system: DLD-1 colon
[48] = test system: HCT-15 colon
[49] = test system: SK-MEL-2 melanoma
[50] = test system: SK-MEL-28 melanoma
[51] = test system: BT-549 breast
[52] = test system: CCRF-CEM leukemia
[53] = test system: DU-145 prostate
[54] = test system: MCF7 breast
[55] = test system: RXF 393 renal
[56] = test system: MDA-N
[57] = test system: A498 renal
[58] = test system: SK-MEL-5 melanoma
[59] = test system: EKVX NSCLC
[60] = test system: PC-3 prostate
[61] = test system: T-47D breast
[62] = test system: MDA-MB-231 breast
[63] = test system: HS 578T breast
[64] = test system: NCI/ADR-RES ovarian
[65] = test system: MDA-MB-435

C=CCCC(C)N(C(=O)OC(C)(C)C)S(=O)(=O)c1ccc(C)cc1 (centres undefined)
TGI [1]: > 100 µM | TGI [2]: > 100 µM | TGI [3]: > 100 µM | TGI [4]: > 100 µM | TGI [5]: > 100 µM | TGI [6]: > 100 µM | TGI [7]: > 100 µM | TGI [8]: > 100 µM | TGI [9]: > 100 µM | TGI [10]: > 100 µM | TGI [11]: > 100 µM | TGI [12]: > 100 µM | TGI [13]: > 100 µM | TGI [14]: > 100 µM | TGI [15]: > 100 µM | TGI [16]: > 100 µM | TGI [17]: > 100 µM | TGI [18]: > 100 µM | TGI [19]: > 100 µM | TGI [20]: > 100 µM | TGI [21]: > 100 µM | TGI [22]: > 100 µM | TGI [23]: > 100 µM | TGI [24]: > 100 µM | TGI [25]: > 100 µM | TGI [26]: > 100 µM | TGI [27]: > 100 µM | TGI [28]: > 100 µM | TGI [29]: > 100 µM | TGI [30]: > 100 µM | TGI [31]: > 100 µM | TGI [32]: > 100 µM | TGI [33]: > 100 µM | TGI [34]: > 100 µM | TGI [35]: > 100 µM | TGI [36]: > 100 µM | TGI [37]: > 100 µM | TGI [38]: > 100 µM | TGI [39]: > 100 µM | TGI [40]: > 100 µM | TGI [41]: > 100 µM | TGI [42]: > 100 µM | TGI [43]: > 100 µM | TGI [44]: > 100 µM | TGI [45]: > 100 µM | TGI [46]: > 100 µM | TGI [47]: > 100 µM | TGI [48]: > 100 µM | TGI [49]: > 100 µM | TGI [50]: > 100 µM

N=c1oc2ccc(Cl)cc2cc1C(=O)NCc1ccccc1
TGI [51]: > 100 µM | TGI [3]: > 100 µM | TGI [4]: > 100 µM | TGI [5]: > 100 µM | TGI [6]: > 100 µM | TGI [7]: > 100 µM | TGI [8]: > 100 µM | TGI [52]: > 54 µM | TGI [53]: > 100 µM | TGI [9]: > 100 µM | TGI [54]: > 100 µM | TGI [10]: > 100 µM | TGI [11]: > 100 µM | TGI [12]: > 100 µM | TGI [13]: > 100 µM | TGI [14]: > 100 µM | TGI [15]: > 100 µM | TGI [16]: > 100 µM | TGI [55]: > 100 µM | TGI [56]: > 100 µM | TGI [17]: > 95 µM | TGI [57]: > 100 µM | TGI [18]: > 100 µM | TGI [19]: > 100 µM | TGI [20]: > 100 µM | TGI [58]: > 100 µM | TGI [21]: 36.8 µM | TGI [22]: > 100 µM | TGI [23]: > 100 µM | TGI [24]: > 100 µM | TGI [25]: > 100 µM | TGI [26]: > 100 µM | TGI [27]: > 100 µM | TGI [28]: > 100 µM | TGI [29]: > 100 µM | TGI [30]: > 100 µM | TGI [59]: > 100 µM | TGI [60]: > 100 µM | TGI [31]: > 100 µM | TGI [32]: > 100 µM | TGI [33]: > 100 µM | TGI [34]: > 100 µM | TGI [35]: > 100 µM | TGI [36]: > 100 µM | TGI [61]: > 100 µM | TGI [37]: > 100 µM | TGI [38]: > 100 µM | TGI [39]: > 100 µM | TGI [40]: > 70.4 µM | TGI [41]: > 100 µM | TGI [42]: > 100 µM | TGI [43]: > 56.7 µM | TGI [62]: > 100 µM | TGI [63]: > 80.5 µM | TGI [64]: > 100 µM | TGI [48]: > 100 µM | TGI [49]: > 100 µM | TGI [65]: > 100 µM | TGI [50]: > 100 µM
